Data taken from US12415777B2, “Fluorene derivative, and production method and use for same” (Osaka Gas Chemicals Co., Ltd., priority 2020, dated 2025).

Columns and labels:
Solvent solubility test = type: physicochemical; parameters: key: A: Soluble; B: Soluble, but undissolved residue was visually confirmed; C: Insoluble; settings: 3% by mass, stood overnight at room temperature (15 to 25° C.), visually observed; for Solubility in Dioxane: 1,4-dioxane; for Solubility in IPA: isopropanol; for Solubility in MEK: methyl ethyl ketone; for Solubility in MIBK: methyl isobutyl ketone; for Solubility in THF: tetrahydrofuran
Method: (Solvent Solubility Test)
For each sample and solvent, a sample and a solvent shown in Table 1 below were mixed in a concentration of 3% by mass, and a mixture was shaken by hand for about 10 minutes, and then allowed to stand overnight at a room temperature (temperature of 15 to 25° C.). After that, the solubility of the sample was visually observed and evaluated according to the following criteria. • A: Soluble • B: Soluble, but undissolved residue was visually confirmed • C: Insoluble (Flexural Test)
The results of the solubility test of the fluorene derivatives obtained in Examples 1 to 3 and Comparative Example 1 are shown in Table 1. In Table 1, IPA represents isopropanol, MEK represents methyl ethyl ketone, MIBK represents methyl isobutyl ketone, dioxane represents 1,4-dioxane, and THF represents tetrahydrofuran. As NIPAM-FL, the one prepared in Example 3A was used.

[1] = 5% mass reduction temperature (TG-DTA); type: physicochemical; settings: nitrogen atmosphere, 50 to 400° C., heating rate 10° C./min
Method: (5% Mass Reduction Temperature)
The temperature, at which the mass of the sample is reduced by 5% by mass, was measured using a Thermogravimeter-Differential Thermal Analyzer (TG-DTA) (manufactured by PerkinElmer, Inc., “TGA-4000”) in a nitrogen atmosphere, under the condition of a measurement temperature range of 50 to 400° C. with a heating rate of 10° C./min.

SMILES	Solubility in Dioxane (Solvent solubility test)	Solubility in Acetone (Solvent solubility test)	Solubility in Chloroform (Solvent solubility test)	Solubility in Ethanol (Solvent solubility test)	Solubility in Ethyl acetate (Solvent solubility test)	Solubility in Hexane (Solvent solubility test)	Solubility in Methanol (Solvent solubility test)	Solubility in Toluene (Solvent solubility test)	Solubility in Water (Solvent solubility test)	Solubility in IPA (Solvent solubility test)	Solubility in MEK (Solvent solubility test)	Solubility in MIBK (Solvent solubility test)	Solubility in THF (Solvent solubility test)	5% mass reduction temperature [1] [°C]
NC(=O)CCC1(CCC(N)=O)c2ccccc2-c2ccccc21 [AAD-FL, 9,9-di-(β-carbamoyl-ethyl)fluorene, reference compound]	C	C	C	C	C	C	C	C	C	C	C	B	C	320
CCN(CC)C(=O)CCC1(CCC(=O)N(CC)CC)c2ccccc2-c2ccccc21 [DEAA-FL, 9,9-bis[2-(N,N-diethylcarbamoyl)ethyl]fluorene]	A	A	A	A	A	C	A	A	C	A	A	A	A	294
CN(C)C(=O)CCC1(CCC(=O)N(C)C)c2ccccc2-c2ccccc21 [DMAA-FL, 9,9-bis[2-(N,N-dimethylcarbamoyl)ethyl]fluorene]	C	C	A	A	C	C	A	C	C	C	C	A	A	318
CC(C)NC(=O)CCC1(CCC(=O)NC(C)C)c2ccccc2-c2ccccc21 [NIPAM-FL, 9,9-bis[2-(N-isopropylcarbamoyl)ethyl]fluorene]	C	C	C	C	C	C	A	C	C	C	C	B	C	257
